The subject of one test is T47D. Kind of test: Cytotoxicity against human T47D cells assessed as growth inhibition at 10 uM after 48 hrs by sulforhodamine B assay. Conditions: read-out: GI. It is filed as functional. (The SRB assay estimates cell density from bound dye.)
The next test has as its system CAKI-1. Kind of test: Cytotoxicity against human CAKI-1 cells assessed as growth inhibition at 10 uM after 48 hrs by sulforhodamine B assay. The class given is functional. The conditions noted are these: read-out: GI.
Test [1] concerns MCF7. Description: Induction of cell cycle arrest in human MCF7 cells assessed as accumulation of cells at S phase at IC50 concentration by Propidium iodide staining based flow cytometric analysis (reference value: 27.61%). The class given is functional. Background: A flow cytometer gives signals particle by particle.
The target of test [2] is T1, Phosphatidylinositol 4,5-bisphosphate 3-kinase catalytic subunit delta isoform (Homo sapiens, UniProt O00329).
T1 sequence (O00329 whole entry): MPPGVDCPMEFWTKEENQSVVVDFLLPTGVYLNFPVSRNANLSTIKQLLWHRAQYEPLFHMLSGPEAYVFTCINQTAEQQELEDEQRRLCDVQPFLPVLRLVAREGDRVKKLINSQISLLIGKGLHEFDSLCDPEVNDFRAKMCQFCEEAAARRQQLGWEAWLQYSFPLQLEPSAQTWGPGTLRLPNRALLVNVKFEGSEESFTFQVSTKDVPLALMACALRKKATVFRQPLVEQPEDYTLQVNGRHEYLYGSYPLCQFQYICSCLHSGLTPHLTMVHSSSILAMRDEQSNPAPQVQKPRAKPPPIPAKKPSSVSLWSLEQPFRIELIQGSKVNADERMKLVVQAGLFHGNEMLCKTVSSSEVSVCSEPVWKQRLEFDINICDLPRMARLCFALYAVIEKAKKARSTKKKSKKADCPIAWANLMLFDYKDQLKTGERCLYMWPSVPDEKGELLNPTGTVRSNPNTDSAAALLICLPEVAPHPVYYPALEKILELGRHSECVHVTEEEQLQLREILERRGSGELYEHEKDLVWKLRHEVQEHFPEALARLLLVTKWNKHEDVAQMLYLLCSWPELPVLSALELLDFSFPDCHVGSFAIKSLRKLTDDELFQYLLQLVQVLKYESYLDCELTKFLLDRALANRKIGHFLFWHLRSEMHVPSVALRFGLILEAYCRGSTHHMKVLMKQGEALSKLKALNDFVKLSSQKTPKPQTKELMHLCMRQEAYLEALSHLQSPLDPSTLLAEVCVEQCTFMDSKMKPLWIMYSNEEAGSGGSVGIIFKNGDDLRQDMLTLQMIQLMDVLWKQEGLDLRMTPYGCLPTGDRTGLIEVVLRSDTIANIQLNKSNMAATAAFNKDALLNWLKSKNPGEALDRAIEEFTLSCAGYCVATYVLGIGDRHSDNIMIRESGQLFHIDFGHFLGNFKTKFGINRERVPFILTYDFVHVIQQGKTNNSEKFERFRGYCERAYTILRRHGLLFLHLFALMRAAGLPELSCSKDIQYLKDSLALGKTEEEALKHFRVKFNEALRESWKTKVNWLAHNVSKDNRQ
Description: Inhibition of PI3Kdelta (unknown origin) using PIP2 as substrate preincubated for 10 mins followed by substrate addition and measured after 1 hr by ELISA. Background: ELISA stands for enzyme-linked immunosorbent assay.

The subject of another test is NCI/ADR-RES. Description: Cytotoxicity against human NCI-ADR-RES cells assessed as growth inhibition at 10 uM after 48 hrs by sulforhodamine B assay. The class given is functional. Conditions: read-out: GI.
Test [3] has as its system MCF7. Description: Induction of apoptosis in human MCF7 cells assessed as late apoptotic cells at 13.30 uM after 48 hrs by annexin V-FITC/propidium iodide staining based flow cytometric analysis (reference value: 0.14%). It is filed as functional. Conditions: dose 13.3 µM.
Test [4] deals with MCF7. Kind of test: Antiproliferative activity against human MCF7 cells assessed as inhibition of cell growth incubated for 48 hrs by MTT assay. The class given is functional, cell-based. Conditions: MCF7, 48 h.
The subject of test [5] is MCF7. Kind of test: Induction of apoptosis in human MCF7 cells assessed as necrotic cells at 13.30 uM after 48 hrs by annexin V-FITC/propidium iodide staining based flow cytometric analysis (reference value: 1.26%). It is filed as functional. Conditions: dose 13.3 µM.
A further test relates to HOP-92. Description: Cytotoxicity against human HOP-92 cells assessed as growth inhibition at 10 uM after 48 hrs by sulforhodamine B assay. The conditions noted are these: read-out: GI. It is filed as functional.
A further test relates to A549. Kind of test: Cytotoxicity against human A549 cells assessed as growth inhibition at 10 uM after 48 hrs by sulforhodamine B assay. It is filed as functional. Conditions: read-out: GI.
In a further test the test system is MDA-MB-231. Kind of test: Cytotoxicity against human MDA-MB-231 cells assessed as growth inhibition at 10 uM after 48 hrs by sulforhodamine B assay. It is filed as functional. The conditions noted are these: read-out: GI.

This passage reports inhibition of growth, Activity and IC50 results from ChEMBL document CHEMBL5055672, “Design, Synthesis, Biological Evaluation, and Computational Studies of Novel Fluorinated Candidates as PI3K Inhibitors: Targeting Fluorophilic Binding Sites” (J Med Chem, 2021).

pIC50: −log10 of the molar value.

With `COC(=O)/C=C1\S/C(=N\N=C\c2ccc(OCC(F)(F)F)cc2)N(c2ccccc2)C1=O`, the inhibition of growth at 10 µM is 14.5% in the test on T47D; 26.6% with CAKI-1; 24.6% in the test on NCI/ADR-RES; 20.1% with HOP-92; 15.3% in the test on A549; 21.5% in the test on MDA-MB-231. Moreover, the Activity in the test with MCF7 [1] was 36.02%; in the test with MCF7 [3], 9.42%; in the test on MCF7 [5], 7.39%. The pIC50 in test [2] was 3.92; in the test with MCF7 [4], 4.88.

Broadly, the pIC50 is −log10 of the IC50, conventionally taken in molar units.
